Results on eight molecules are retold here after patent publication US5792635A, “Method of inhibiting the sodium/proton exchanger NHE3 and method of inhibiting growth by administering squalamine” (priority 1995, dated 1998).

Converted amounts (≈) assume the structure as drawn. “Also recorded” adds a separate entry of the source. Some results are limits rather than exact numbers.

The test system of one data set is Murine B16 melanoma. Description: Cancer cells inhibited in vitro. The settings on record: 10 μg/ml. It counts as cell-based. The source says: (§1) As set forth in Table 7 below, all malignant tumors evaluated in tissue culture, endothelial cells and vascular smooth muscle cells were sensitive to inhibition. Thus, compound 1436 has application in the control of growth factor dependent proliferation of many types of tissue.

Another data set has as its system Murine L1210 leukemia. Briefly: Cancer cells inhibited in vitro. The settings on record: 10 μg/ml. The data set is classed as cell-based.
Source text: as §1

Data set [1] concerns Human colon carcinoma HT29. Description: Cancer cells inhibited in vitro. Conditions: 10 μg/ml. It counts as cell-based.
Source text: as §1

In the next data set the test system is Lewis lung carcinoma. Briefly: Cancer cells inhibited in vitro. It counts as cell-based. Conditions: 10 μg/ml.
Source text: as §1

The subject of another data set is Human melanoma WM 1617. Description: Cancer cells inhibited in vitro. The data set is classed as cell-based. Conditions: 10 μg/ml.
Source text: as §1

Data set [2] deals with Human colon carcinoma SW948. Briefly: Cancer cells inhibited in vitro. Conditions: 10 μg/ml. It counts as cell-based.
Source text: as §1

Data set [3] deals with human coronary artery smooth muscle. Description: Proliferation of human coronary artery smooth muscle in vitro. It counts as cell-based. Conditions: FIG. 15. From the text:
Aminosterols of the invention may also have utility in inhibiting the growth factor mediated proliferation of smooth muscle within the artery. Following coronary angioplasty, reocclusion commonly occurs, secondary to reparative proliferation of the vascular smooth muscle within the wall of the surgically manipulated blood vessel. This process generally takes place over the course of 7-10 days. To evaluate whether an agent could prevent the growth factor mediated proliferation of smooth muscle within the artery, compound 1436 was evaluated in vitro for its effect on the proliferation of human coronary artery smooth muscle. Results for compound 1436 are shown in FIG. 13, and those for squalamine are shown in FIG. 14, with FIG. 15 being a composite logarithmic plot.

For another data set, the system named is human T-cells. Briefly: Inhibition of PHA-stimulated human lymphocytes. It counts as cell-based. The settings on record: Homo sapiens, T-cell; 10 μg/ml; read-out: inhibition of blast transformation. From the text: Results are tabulated below.
For data set [4], the system named is Xenopus tadpoles. Briefly: Tadpole assay. Conditions: 10 μg/ml; for observed response in tadpole: stage 59-60 Xenopus.
The subject of data set [5] is vitelline capillaries of 3- to 5-day chick embryo. Description: Chick embryo vitelline capillary regression assay. The data set is classed as in vivo. The procedure:
(§2) Using the chick embryo vitelline capillaries assay, compounds were tested for their ability to induce capillary regression. Each compound was applied in 0.1 ml of 15% Ficol 400 and PBS onto the embryo, and vascular regression was assessed after 60 minutes.
The 3-day chick embryo consists of an embryonic disc from which numerous vessels emerge and return, forming a "figure 8"-shaped structure--the embryo in the center with vascular loops extending outward over both poles. […] Following a lag period of around 15 minutes, the constriction of continuity between capillary and secondary vessels, generally on the "venous" side, was observed. Continued pulsatile blood flow progressed, resulting in a "swelling" of the blind tube, followed by a pinching off of the remaining connection and formation of an enclosed vascular sac resembling a "blood island." This process progressed until only the largest vessels remained intact.

The nature of data set [6]: Effect on fasting blood glucose in mice. It counts as in vivo, mouse (CD-1). Conditions: intravenous; 1436 in D5W, 1437 in water. The procedure:
To study the effect of steroid administrator or the NHE responsible for secretion of insulin, several of the aminosterols from shark liver were administered to fasting mice. Male CD-1 mice were assigned to one of four treatment groups. Whole blood glucose was tested using glucometer (Lifescan Glucometer II and One Touch test strips). Statistical analysis was via one-way analysis of variance (ANOVA) followed by subsequent Bonferonni's t-test.

Data set [7] in a line: Effect on arterial resistance in the rat after i.v. administration. It counts as in vivo. The procedure: A 200-g rat was catheterized in the right carotid artery, and the compound was introduced over a ten-second period to a total dosage of 5 mg/kg. Within 30 seconds, the mean arterial pressure had fallen from about 100 mm Hg to about 70 mm Hg, with a marked reduction in pulse pressure from about 40 mm to about 10 mm. […] If cardiac output was basically unaffected, reduction in blood pressure would have resulted principally from a reduction in system resistance.
At that time, 40 μg of noradrenaline was introduced.

In data set [8] the test system is Human ovarian carcinoma SKOV3. Briefly: Cancer cells inhibited in vitro. It counts as cell-based. On the procedure:
as §1
Using the assay described above, the anticancer effects of compound 1437 against several cancer lines was assessed.

Data set [9] has as its system human umbilical venous endothelial cells. Description: Non-transformed cells inhibited in vitro. The data set is classed as cell-based. Conditions: 10 μg/ml.
Source text: as §1

Data set [10] deals with Human coronary artery smooth muscle cells. Briefly: Non-transformed cells inhibited in vitro. The data set is classed as cell-based. The settings on record: 10 μg/ml.
Source text: as §1

Data set [11] concerns bovine pulmonary endothelial cells. Description: Non-transformed cells inhibited in vitro. The data set is classed as cell-based. The settings on record: 10 μg/ml.
Source text: as §1

Data set [12] deals with Human microvascular endothelial cells. Briefly: Non-transformed cells inhibited in vitro. It counts as cell-based. The settings on record: 10 μg/ml.
Source text: as §1

The subject of another data set is B16 melanoma. Description: Synergistic inhibition of tumor growth, B16 melanoma in mice. It counts as in vivo, mouse. The settings on record: squalamine 15 mg/kg/day; compound 1436 tolerable schedule. The procedure: Based on the idea that tumor growth involves both the clonal expansion of a malignant cell along with the development of a supporting vascular supply, a combination of compound 1436 with squalamine was tested to determine whether it would achieve a synergistic effect on solid tumor growth. This concept was evaluated in the B16 melanoma model.
Animals were implanted with B16 melanoma followed by treatment with compound 1436 or 1256 administered in a combined schedule or separately. […] Thus, a combination of these two compounds achieves a therapeutic benefit in tumors dependent on neovascularization that may prevent metastatic spread.

A short description of data set [13]: Effect on growth and weight gain of growing mice. It counts as in vivo, mouse (C57B). The procedure: Animals were dosed QTD (i.p.) starting on Day 1. […] Animals receiving 5 mg/kg QTD experienced about a 50% reduction in growth, compared to untreated controls, while animals receiving 1 mg/kg QTD were affected by about 10%. […] They appeared very much like hypophysectamized animals might appear.

Data set [14] concerns L1210 lymphoblastic leukemia cells. Description: Mouse model of leukemia (L1210), survival and hematological profile.
Source text: C57B mice were inoculated with L1210 lymphoblastic leukemia cells at an inoculum that causes leukemia in 100% of animals.
Another data set concerns HM. Briefly: HM MTT assay (Table II). It counts as cell-based. The settings on record: read-out: Minimum Effective Concentration, HM MTT assay. (In general: Tetrazolium dyes change colour on reduction, which living cells bring about.)
For a further data set, the system named is LLC. Description: LLC MTT assay (Table II). The settings on record: Lewis lung carcinoma, read-out: Minimum Effective Concentration, LLC MTT. The data set is classed as cell-based.
Another data set deals with NHE1β. Conditions: nucleated erythrocytes; cited from earlier work.
The test system of a further data set is chick embryo. Description: Chick embryo diss. assay (Table II). It counts as in vivo. On the procedure:
as §2

The subject of the next data set is C. albicans. Description: Antibiotic activity, MIC. It counts as cell-based. Conditions: Candida albicans.
Another data set deals with P. Briefly: Antibiotic activity, MIC. The data set is classed as cell-based. The settings on record: read-out: MIC Values.
A further data set concerns E. Coli. Description: Antibiotic activity, MIC. It counts as cell-based. Conditions: Escherichia coli.
The subject of the next data set is S. aureus. Briefly: Antibiotic activity, MIC. The data set is classed as cell-based. Conditions: Staphylococcus aureus.
The subject of data set [15] is Xenopus tadpoles. Conditions: in vivo.
For a further data set, the system named is NHE. Description: Assay for direct inhibition of NHE. The data set is classed as cell-based. The settings on record: relative to squalamine. From the text:
Moreover, other aminosterols have shown anti-angiogenic activity. Compounds were subjected to a various assays, including the chick embryo capillary regression assay, the tadpole assay, the assay for inhibition of endothelial cord formation, and the assay for direct inhibition of NHE, as described above, to determine their utilities. As evident from the above data, correlation among the results from the chick, tadpole and in vitro inhibition of endothelial cell cord formation assays is excellent.
Through the application of these assays, compound 319 emerged as an attractive alternative to squalamine. […] Further properties of compound 319 are discussed below.

For orientation: inhibition means how much of the control response was suppressed. As for `CC(C)[C@@H](CC[C@@H](C)[C@H]1CC[C@H]2[C@@H]3[C@H](O)C[C@H]4C[C@@H](NCCCNCCCCNCCCN)CC[C@]4(C)[C@H]3CC[C@]12C)OS(=O)(=O)O` [Compound 1436], the inhibited in vitro entry (with Murine B16 melanoma; with Murine L1210 leukemia; in data set [1]; in the data set on Lewis lung carcinoma; in the data set with Human melanoma WM 1617; in data set [2]) was “INHIBITED” throughout. Further, the inhibited in vitro entry in [8] (10 μg/ml), in [9], in [10], in data set [11] and in data set [12] was “INHIBITED” in each case. Further, in [3], the “suppression of growth of human coronary artery smooth muscle” value was “suppress in vitro the growth of human coronary artery smooth muscle”. Also, the inhibition at 10 µg/mL in the data set with human T-cells is over 75%. Further, the “death / lethality time” value in the data set on Xenopus tadpoles [4] was “about 2 hours”. Also, the “observed response in tadpole” value with Xenopus tadpoles [4] is “common vascular occlusive effect; also recorded: Gradual reduction in overall activity. Heart beat remained strong, suggesting nervous system depression; also recorded: Melanocytes over head and tail began to swell, first exhibiting visibly distinct nuclei, followed by rupture into fragments; also recorded: dramatic disruption of melanocytes over its head, trunk, and tail, along with depression of its nervous system; also recorded: No effects are observed on epithelial cell integrity, vascular flow, erythrocyte volume, tissue integrity, muscle fiber striation, or GI tract activity”. In addition, the “vitelline capillary regression, potency in words” value in data set [5] (chick embryo capillary bed) is reported as “about the same potency as squalamine”. Further, the hyperglycemic response result in data set [6] is on record as “caused hyperglycemia in mice”. For the same molecule, the reversibility by noradrenaline entry in [7] (40 μg noradrenaline at 30 minutes) is “readily reversible by standard pharmacological practice”. Further, in data set [7] (5 mg/kg i.v.), the “duration of blood pressure effect followed without significant change” value stood at 30 min. Besides, in the data set with B16 melanoma, the “effect of single agent versus combination” value is recorded as “Neither administration of squalamine at 15 mg/kg/day nor compound 1436 alone in a tolerable schedule could achieve this effect”. Also, the “growth inhibition of mice” value in data set [13] (10 mg/kg QTD i.p., after 6 doses, about 1 month) is “almost completely inhibited”. Also, in [13] (C57B mice, 1-10 mg/kg QTD i.p.), the apparent health entry was “all were active, normally proportioned, not-cachectic, and in excellent apparent clinical health”. In addition, in data set [13] (normal growing mice, i.p.), the “suppression of linear growth and weight gain” value is “suppresses both linear growth and weight gain in growing mice in a dose-dependent fashion”. Also, the “survival in L1210 leukemia mice” value in [14] (highest dose (10 mg/kg every 3 days i.p.), FIG. 11) is “significant prolongation of life”.

Regarding `CC(C)[C@@H](CC[C@@H](C)[C@H]1CC[C@H]2[C@@H]3[C@H](O)C[C@H]4C[C@@H](NCCCNCCCCNCCCN)CC[C@]4(C)[C@H]3CC[C@]12C)OS(=O)(=O)O` [drawing 119], the minimal effective concentration was 6.9 µg/mL in the data set with HM and 16.7 µg/mL in the data set on LLC.

For `CC(C)C(CO)(CC[C@@H](C)[C@H]1CC[C@H]2[C@@H]3[C@H](O)C[C@H]4C[C@@H](NCCCNCCCCN)CC[C@]4(C)[C@H]3CC[C@]12C)OS(=O)(=O)O` (single isomer, unassigned) [Compound 1437], in the data set with Xenopus tadpoles [4], the “observed response in tadpole” value is “Epithelium covering the embryonic portions of the animal, such as the tail and antennae, began to slough off in sheets; also recorded: Animal was otherwise active, with little tissue breakdown noted; also recorded: the larval skin was observed to shed off in a sheet”. In data set [6], the hyperglycemic response result is “caused hyperglycemia in mice”. For the same molecule, the anticancer activity result in data set [8] (SKOV3) is “anticancer activity”.

In the case of `N=C(N)NC(=O)c1nc(Cl)c(N)nc1N` [Amiloride], the “inhibition of NHE1β” value in the data set on NHE1β is listed as “inhibited by high concentrations of amiloride”.

Regarding `N.N.[Cl][Pt][Cl]` [Cisplatin, reference compound], the hematological profile entry in data set [14] (L1210-inoculated mice) is listed as “profound anemia by day 28”.

In the case of `COC(=O)CCC(C)[C@H]1CCC2C3CC[C@H]4C[C@H](NCCCNCCCCNCCCN)CC[C@]4(C)C3CC[C@@]21C` (some centres unmarked) [drawing 108], the “Minimum Effective Concentration, chick embryo diss. assay” value in the data set on chick embryo is over 1 µg. The minimal effective concentration in the data set on LLC is 6.8 µg/mL.

One may read the MIC as the lowest concentration found to suppress growth. With `CC(C)CCC[C@@H](C)[C@H]1CC[C@H]2[C@@H]3CC[C@H]4C[C@H](NCCCCN)CC[C@]4(C)[C@H]3CC[C@]12C`, the MIC in the data set on C. albicans was 64 µg/mL (≈ 139 µM); in the data set on P., over 256 µg/mL; against E. Coli it was over 256 µg/mL; against S. aureus, 4 µg/mL (≈ 8.72 µM).

As for `C[C@H](CCC(=O)O)[C@H]1CC[C@H]2[C@@H]3CC[C@H]4C[C@@H](NCCCNCCCCN)CC[C@]4(C)[C@H]3CC[C@]12C` [Compound 319], the CNS effects entry in the data set on Xenopus tadpoles [15] was “no CNS effects”. In the data set on Xenopus tadpoles [4], the “observed response in tadpole” value is listed as “common vascular occlusive effect”. The “activity in vitelline capillary regression assay” value in [5] (Table 5) is listed as “especially active”. The “potency as an NHE inhibitor” value in the data set with NHE is reported as “superior to squalamine”.
